According to ChEMBL document CHEMBL5705887, “Distinct concentration-dependent effects of the polo-like kinase 1-specific inhibitor GSK461364A, including differential effect on apoptosis” (Cancer Res, 2009):
Active and inactive are the calls of the source. No cut-off for these calls is given here.

How the values were obtained:
[1] = system: A2780; assay: Antiproliferative activity against human A2780 cells assessed as growth inhibition incubated for 72 hrs by celltiter-glo assay; assay type: functional
[2] = system: A-427; assay: Antiproliferative activity against human A-427 cells assessed as viable cell signal at maximum growth inhibition incubated for 72 hrs by celltiter-glo assay relative to control; assay type: functional
[3] = system: ZR-75-1; assay: Antiproliferative activity against human ZR-75-1 cells assessed as viable cell signal at maximum growth inhibition incubated for 72 hrs by celltiter-glo assay relative to control; assay type: functional
[4] = system: HCT-116; assay: Antiproliferative activity against human HCT-116 cells assessed as growth inhibition incubated for 72 hrs by celltiter-glo assay; assay type: functional
[5] = system: NCI-H82; assay: Antiproliferative activity against human NCI-H82 cells assessed as viable cell signal at maximum growth inhibition incubated for 72 hrs by celltiter-glo assay relative to control; assay type: functional
[6] = biological target: NUAK family SNF1-like kinase 1 (Homo sapiens) (UniProt O60285); assay: Inhibition of full length N-terminal his6-tagged recombinant human ARK5 (2 to end residues) expressed in baculovirus Sf21 cells at 10 uM relative to control
NUAK family SNF1-like kinase 1 (Homo sapiens), sequence (O60285 whole entry, the tested form may be a part): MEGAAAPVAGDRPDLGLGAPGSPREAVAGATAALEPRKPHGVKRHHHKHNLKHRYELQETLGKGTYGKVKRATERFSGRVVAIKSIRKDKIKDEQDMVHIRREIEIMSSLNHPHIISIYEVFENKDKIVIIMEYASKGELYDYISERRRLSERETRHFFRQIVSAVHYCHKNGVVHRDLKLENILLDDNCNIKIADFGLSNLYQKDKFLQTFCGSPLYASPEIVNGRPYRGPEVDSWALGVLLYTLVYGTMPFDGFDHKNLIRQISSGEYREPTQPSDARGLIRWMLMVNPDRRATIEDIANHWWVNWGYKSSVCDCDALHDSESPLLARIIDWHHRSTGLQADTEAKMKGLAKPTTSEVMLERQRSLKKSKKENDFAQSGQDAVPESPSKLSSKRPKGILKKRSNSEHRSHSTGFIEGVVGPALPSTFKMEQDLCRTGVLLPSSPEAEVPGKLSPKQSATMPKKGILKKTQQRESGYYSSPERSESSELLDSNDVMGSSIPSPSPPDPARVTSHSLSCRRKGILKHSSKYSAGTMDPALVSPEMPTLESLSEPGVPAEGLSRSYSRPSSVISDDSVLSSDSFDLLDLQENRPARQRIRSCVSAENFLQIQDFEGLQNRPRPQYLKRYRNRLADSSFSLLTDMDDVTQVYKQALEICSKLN

[7] = biological target: PAS domain-containing serine/threonine-protein kinase (Homo sapiens) (UniProt Q96RG2); assay: Inhibition of recombinant human PASK at 10 uM relative to control
PAS domain-containing serine/threonine-protein kinase (Homo sapiens), sequence (Q96RG2 whole entry, the tested form may be a part): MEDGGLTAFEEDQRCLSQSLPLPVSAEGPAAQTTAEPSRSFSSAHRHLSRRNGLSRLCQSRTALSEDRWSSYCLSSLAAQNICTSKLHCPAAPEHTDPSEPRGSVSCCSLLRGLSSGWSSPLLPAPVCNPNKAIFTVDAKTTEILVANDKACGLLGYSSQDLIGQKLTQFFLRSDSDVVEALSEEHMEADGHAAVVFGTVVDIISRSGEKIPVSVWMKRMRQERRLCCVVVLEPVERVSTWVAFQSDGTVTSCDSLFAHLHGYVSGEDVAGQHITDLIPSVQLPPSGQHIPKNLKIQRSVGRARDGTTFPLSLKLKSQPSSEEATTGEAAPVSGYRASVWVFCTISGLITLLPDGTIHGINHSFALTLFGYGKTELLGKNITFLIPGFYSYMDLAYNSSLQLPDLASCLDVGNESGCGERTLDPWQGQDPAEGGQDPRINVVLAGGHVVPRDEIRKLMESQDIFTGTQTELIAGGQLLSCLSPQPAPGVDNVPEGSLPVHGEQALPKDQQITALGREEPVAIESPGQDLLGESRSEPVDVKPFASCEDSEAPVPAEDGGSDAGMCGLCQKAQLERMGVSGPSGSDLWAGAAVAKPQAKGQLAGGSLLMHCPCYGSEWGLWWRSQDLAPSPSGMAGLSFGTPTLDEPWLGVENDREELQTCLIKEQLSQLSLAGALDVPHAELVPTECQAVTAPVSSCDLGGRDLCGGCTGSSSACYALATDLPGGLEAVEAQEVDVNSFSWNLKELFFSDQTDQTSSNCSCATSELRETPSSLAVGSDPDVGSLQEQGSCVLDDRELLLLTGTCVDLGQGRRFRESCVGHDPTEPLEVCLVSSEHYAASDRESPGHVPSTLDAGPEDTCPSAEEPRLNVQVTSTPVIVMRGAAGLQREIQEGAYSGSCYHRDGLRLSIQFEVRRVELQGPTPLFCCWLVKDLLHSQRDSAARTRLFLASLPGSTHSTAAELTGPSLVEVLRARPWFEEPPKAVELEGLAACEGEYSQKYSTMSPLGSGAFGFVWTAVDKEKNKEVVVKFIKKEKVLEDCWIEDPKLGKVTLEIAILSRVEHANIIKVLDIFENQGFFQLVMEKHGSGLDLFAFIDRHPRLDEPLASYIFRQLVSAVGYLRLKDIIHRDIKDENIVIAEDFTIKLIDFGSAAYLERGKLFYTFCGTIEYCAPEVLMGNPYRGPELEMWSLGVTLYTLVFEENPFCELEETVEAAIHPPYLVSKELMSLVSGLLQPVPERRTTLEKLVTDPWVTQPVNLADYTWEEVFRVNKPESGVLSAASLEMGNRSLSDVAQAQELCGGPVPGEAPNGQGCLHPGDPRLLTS

[8] = system: SK-MEL-2; assay: Antiproliferative activity against human SK-MEL-2 cells assessed as growth inhibition incubated for 72 hrs by celltiter-glo assay; assay type: functional
[9] = system: NCI-H358; assay: Antiproliferative activity against human NCI-H358 cells assessed as of viable cell signal at minimum maximum cell growth incubated for 72 hrs by celltiter-glo assay relative to control; assay type: functional
[10] = system: PC-3; assay: Antiproliferative activity against human PC-3 cells assessed as viable cell signal at maximum growth inhibition incubated for 72 hrs by celltiter-glo assay relative to control; assay type: functional
[11] = system: MDA-MB-468; assay: Antiproliferative activity against human MDA-MB-468 cells assessed as growth inhibition incubated for 72 hrs by celltiter-glo assay; assay type: functional
[12] = system: HN5; assay: Antiproliferative activity against human HN5 cells assessed as of viable cell signal at minimum maximum cell growth incubated for 72 hrs by celltiter-glo assay relative to control; assay type: functional
[13] = system: ASPC1; assay: Antiproliferative activity against human ASPC1 cells assessed as growth inhibition incubated for 72 hrs by celltiter-glo assay; assay type: functional
[14] = system: THP-1; assay: Antiproliferative activity against human THP-1 cells assessed as viable cell signal at maximum growth inhibition incubated for 72 hrs by celltiter-glo assay relative to control; assay type: functional
[15] = system: A549; assay: Antiproliferative activity against human A549 cells assessed as of viable cell signal at minimum maximum cell growth incubated for 72 hrs by celltiter-glo assay relative to control; assay type: functional
[16] = system: MDA-MB-231; assay: Antiproliferative activity against human MDA-MB-231 cells assessed as of viable cell signal at minimum maximum cell growth incubated for 72 hrs by celltiter-glo assay relative to control; assay type: functional
[17] = system: U2OS; assay: Antiproliferative activity against human U2OS cells assessed as of viable cell signal at minimum maximum cell growth incubated for 72 hrs by celltiter-glo assay relative to control; assay type: functional
[18] = system: PANC-1; assay: Antiproliferative activity against human PANC-1 cells assessed as viable cell signal at maximum growth inhibition incubated for 72 hrs by celltiter-glo assay relative to control; assay type: functional
[19] = system: RPMI-8226; assay: Antiproliferative activity against human RPMI-8226 cells assessed as viable cell signal at maximum growth inhibition incubated for 72 hrs by celltiter-glo assay relative to control; assay type: functional
[20] = system: Jurkat; assay: Antiproliferative activity against human Jurkat cells assessed as viable cell signal at maximum growth inhibition incubated for 72 hrs by celltiter-glo assay relative to control; assay type: functional
[21] = system: NCI-H1299; assay: Antiproliferative activity against human NCI-H1299 cells assessed as viable cell signal at maximum growth inhibition incubated for 72 hrs by celltiter-glo assay relative to control; assay type: functional
[22] = system: HN5; assay: Antiproliferative activity against human HN5 cells assessed as viable cell signal at maximum growth inhibition incubated for 72 hrs by celltiter-glo assay relative to control; assay type: functional
[23] = system: NCI-N87; assay: Antiproliferative activity against human NCI-N87 cells assessed as viable cell signal at maximum growth inhibition incubated for 72 hrs by celltiter-glo assay relative to control; assay type: functional
[24] = system: Platelet-derived growth factor receptor alpha (Homo sapiens), P16234 [V561D]; assay: Inhibition of N-terminal his6-tagged recombinant human PDGFRA V561D mutant at 10 uM relative to control
Platelet-derived growth factor receptor alpha (Homo sapiens), P16234 [V561D], sequence (P16234 whole entry V561D): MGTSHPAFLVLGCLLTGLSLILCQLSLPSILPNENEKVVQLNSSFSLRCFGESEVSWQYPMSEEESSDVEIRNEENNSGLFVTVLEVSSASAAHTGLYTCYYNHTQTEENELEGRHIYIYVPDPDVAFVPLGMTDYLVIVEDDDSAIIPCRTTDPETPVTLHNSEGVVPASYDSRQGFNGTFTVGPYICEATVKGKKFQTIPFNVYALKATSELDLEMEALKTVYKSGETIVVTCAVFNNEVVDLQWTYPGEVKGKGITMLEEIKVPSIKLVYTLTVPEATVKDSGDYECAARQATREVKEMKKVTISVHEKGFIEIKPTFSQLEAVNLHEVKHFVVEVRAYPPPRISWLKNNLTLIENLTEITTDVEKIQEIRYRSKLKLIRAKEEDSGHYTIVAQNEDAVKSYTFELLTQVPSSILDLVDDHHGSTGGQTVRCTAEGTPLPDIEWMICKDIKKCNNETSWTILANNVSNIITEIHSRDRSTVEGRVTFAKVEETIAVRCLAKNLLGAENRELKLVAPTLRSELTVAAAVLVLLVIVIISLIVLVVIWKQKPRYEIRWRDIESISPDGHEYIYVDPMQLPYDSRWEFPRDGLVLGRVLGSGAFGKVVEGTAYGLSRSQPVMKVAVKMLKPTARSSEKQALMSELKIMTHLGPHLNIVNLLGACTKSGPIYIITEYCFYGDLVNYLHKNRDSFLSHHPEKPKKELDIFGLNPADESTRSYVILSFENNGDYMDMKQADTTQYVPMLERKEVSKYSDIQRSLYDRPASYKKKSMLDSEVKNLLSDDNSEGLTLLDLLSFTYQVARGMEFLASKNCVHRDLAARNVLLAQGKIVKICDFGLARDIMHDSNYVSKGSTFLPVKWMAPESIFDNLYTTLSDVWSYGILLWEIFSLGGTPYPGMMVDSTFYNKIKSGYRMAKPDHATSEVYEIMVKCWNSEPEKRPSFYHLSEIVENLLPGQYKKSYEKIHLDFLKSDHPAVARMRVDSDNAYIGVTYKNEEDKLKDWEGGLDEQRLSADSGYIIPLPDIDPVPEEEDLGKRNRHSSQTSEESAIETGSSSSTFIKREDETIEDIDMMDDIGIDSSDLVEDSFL

[25] = system: NCI-H1299; assay: Antiproliferative activity against human NCI-H1299 cells assessed as growth inhibition incubated for 72 hrs by celltiter-glo assay; assay type: functional
[26] = system: Hep 3B2; assay: Antiproliferative activity against human Hep3B cells assessed as viable cell signal at maximum growth inhibition incubated for 72 hrs by celltiter-glo assay relative to control; assay type: functional
[27] = system: MDA-MB-231; assay: Antiproliferative activity against human MDA-MB-231 cells assessed as viable cell signal at maximum growth inhibition incubated for 72 hrs by celltiter-glo assay relative to control; assay type: functional
[28] = system: HCC1937; assay: Antiproliferative activity against human HCC1937 cells assessed as of viable cell signal at minimum maximum cell growth incubated for 72 hrs by celltiter-glo assay relative to control; assay type: functional
[29] = system: ZR-75-1; assay: Antiproliferative activity against human ZR-75-1 cells assessed as growth inhibition at 10 to 250 nmol/L incubated for 72 hrs by celltiter-glo assay; assay type: functional, cell-based; settings: dose 10-250 nmol/L
[30] = system: HCT-116; assay: Antiproliferative activity against human HCT-116 cells assessed as of viable cell signal at minimum maximum cell growth incubated for 72 hrs by celltiter-glo assay relative to control; assay type: functional
[31] = system: MX1; assay: Antiproliferative activity against human MX1 cells assessed as of viable cell signal at minimum maximum cell growth incubated for 72 hrs by celltiter-glo assay relative to control; assay type: functional
[32] = system: RPMI-8226; assay: Antiproliferative activity against human RPMI-8226 cells assessed as growth inhibition incubated for 72 hrs by celltiter-glo assay; assay type: functional
[33] = system: LoVo; assay: Antiproliferative activity against human LoVo cells assessed as viable cell signal at maximum growth inhibition incubated for 72 hrs by celltiter-glo assay relative to control; assay type: functional
[34] = system: A704; assay: Antiproliferative activity against human A704 cells assessed as viable cell signal at maximum growth inhibition incubated for 72 hrs by celltiter-glo assay relative to control; assay type: functional
[35] = system: A498; assay: Antiproliferative activity against human A498 cells assessed as growth inhibition incubated for 72 hrs by celltiter-glo assay; assay type: functional
[36] = biological target: Platelet-derived growth factor receptor alpha (Homo sapiens) (UniProt P16234); assay: Inhibition of N-terminal his6-tagged recombinant human PDGFRalpha (550 to end residues) expressed in baculovirus Sf21 insect cells at 10 uM relative to control
Platelet-derived growth factor receptor alpha (Homo sapiens), sequence (P16234 whole entry): as the sequence (P16234 whole entry V561D) above, with D561V counted along it

[37] = system: MDA-MB-468; assay: Antiproliferative activity against human MDA-MB-468 cells assessed as viable cell signal at maximum growth inhibition incubated for 72 hrs by celltiter-glo assay relative to control; assay type: functional
[38] = biological target: Serine/threonine-protein kinase WNK3 (Homo sapiens) (UniProt Q9BYP7); assay: Inhibition of N-terminal his6-tagged recombinant human WNK3 (1 to 434 residues) expressed in baculovirus Sf21 insect cells at 10 uM relative to control
Serine/threonine-protein kinase WNK3 (Homo sapiens), sequence (Q9BYP7 whole entry, the tested form may be a part): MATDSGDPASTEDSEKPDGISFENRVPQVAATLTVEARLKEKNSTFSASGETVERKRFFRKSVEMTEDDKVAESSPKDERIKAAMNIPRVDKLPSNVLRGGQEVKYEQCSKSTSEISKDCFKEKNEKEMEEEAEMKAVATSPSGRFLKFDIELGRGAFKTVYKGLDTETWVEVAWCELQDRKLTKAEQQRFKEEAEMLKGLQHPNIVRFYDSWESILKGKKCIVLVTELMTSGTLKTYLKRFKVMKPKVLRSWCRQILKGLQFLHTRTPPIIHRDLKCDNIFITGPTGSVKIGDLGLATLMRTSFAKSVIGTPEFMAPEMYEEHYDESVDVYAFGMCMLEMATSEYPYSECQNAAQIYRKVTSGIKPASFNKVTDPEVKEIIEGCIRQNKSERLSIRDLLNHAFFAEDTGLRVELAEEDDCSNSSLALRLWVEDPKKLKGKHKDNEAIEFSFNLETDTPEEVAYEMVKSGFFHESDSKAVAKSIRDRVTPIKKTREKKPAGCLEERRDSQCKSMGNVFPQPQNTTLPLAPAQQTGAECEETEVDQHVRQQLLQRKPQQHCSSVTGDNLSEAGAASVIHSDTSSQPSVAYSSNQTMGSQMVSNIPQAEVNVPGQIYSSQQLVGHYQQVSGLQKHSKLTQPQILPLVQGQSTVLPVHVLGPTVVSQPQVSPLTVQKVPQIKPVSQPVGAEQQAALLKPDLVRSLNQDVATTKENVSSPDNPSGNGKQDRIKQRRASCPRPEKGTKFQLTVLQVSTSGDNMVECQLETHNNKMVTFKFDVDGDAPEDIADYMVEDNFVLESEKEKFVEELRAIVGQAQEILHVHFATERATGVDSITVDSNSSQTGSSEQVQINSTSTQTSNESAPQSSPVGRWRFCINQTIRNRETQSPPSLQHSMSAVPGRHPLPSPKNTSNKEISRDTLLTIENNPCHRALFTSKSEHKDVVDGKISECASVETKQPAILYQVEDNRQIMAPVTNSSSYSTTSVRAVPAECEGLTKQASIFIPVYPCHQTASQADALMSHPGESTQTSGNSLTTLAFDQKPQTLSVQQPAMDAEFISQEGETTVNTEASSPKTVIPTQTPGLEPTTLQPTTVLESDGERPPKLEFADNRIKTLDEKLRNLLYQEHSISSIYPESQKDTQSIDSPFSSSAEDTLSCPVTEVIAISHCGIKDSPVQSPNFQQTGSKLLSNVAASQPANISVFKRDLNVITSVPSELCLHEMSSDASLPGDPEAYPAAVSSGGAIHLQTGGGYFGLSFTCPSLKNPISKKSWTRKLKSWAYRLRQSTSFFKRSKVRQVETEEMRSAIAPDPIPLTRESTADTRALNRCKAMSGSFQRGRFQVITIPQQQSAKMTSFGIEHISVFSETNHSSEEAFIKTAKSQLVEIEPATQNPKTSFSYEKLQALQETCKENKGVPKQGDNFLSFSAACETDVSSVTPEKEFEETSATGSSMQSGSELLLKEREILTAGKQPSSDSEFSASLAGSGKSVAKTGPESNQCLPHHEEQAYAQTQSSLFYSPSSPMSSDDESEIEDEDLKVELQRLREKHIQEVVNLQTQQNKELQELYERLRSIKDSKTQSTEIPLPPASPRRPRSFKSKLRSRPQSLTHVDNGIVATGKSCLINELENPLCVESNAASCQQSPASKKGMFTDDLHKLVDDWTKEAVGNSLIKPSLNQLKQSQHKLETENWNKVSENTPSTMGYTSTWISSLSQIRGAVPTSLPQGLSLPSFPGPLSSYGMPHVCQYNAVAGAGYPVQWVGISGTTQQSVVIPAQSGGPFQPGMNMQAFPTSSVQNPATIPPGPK

[39] = system: HCT-15; assay: Antiproliferative activity against human HCT-15 cells assessed as growth inhibition incubated for 72 hrs by celltiter-glo assay; assay type: functional

C[C@@H](Oc1cc(-n2cnc3ccc(CN4CCN(C)CC4)cc32)sc1C(N)=O)c1ccccc1C(F)(F)F [GSK-461364]
GI50 [1]: 28.1 nM | Emax [2]: 218% | Emax [3]: 229% | GI50 [4]: 50.5 nM | Emax [5]: 398% | inhibition [6]: 79% | inhibition [7]: 63% | GI50 [8]: 14 nM | Emin [9]: 150% | Emax [10]: 582% | GI50 [11]: 6.35 nM | Emin [12]: 39.8% | GI50 [13]: 22.3 nM | Emax [14]: 349% | Emin [15]: 124.1% | Emin [16]: 37% | Emin [17]: 170.6% | Emax [18]: 530% | Emax [19]: 515% | Emax [20]: 753% | Emax [21]: 495% | Emax [22]: 812% | Emax [23]: 776% | inhibition [24]: 96% | GI50 [25]: 61.4 nM | Emax [26]: 220% | Emax [27]: 520% | Emin [28]: 100% | Activity [29]: inactive | Emin [30]: 157.3% | Emin [31]: 161.5% | GI50 [32]: 22.5 nM | Emax [33]: 400% | Emax [34]: 255% | GI50 [35]: 40.4 nM | inhibition [36]: 72% | Emax [37]: 458% | inhibition [38]: 68% | GI50 [39]: 90.8 nM
